Details: in water

Question: What does the source list for `CCCCCCCCn1cc[n+](C)c1.F[P-](F)(F)(F)(F)F`?
Answer: solubility (mole fraction) (285.85 K): 9.4e-05; solubility (mole fraction) (293.95 K): 0.000116; solubility (mole fraction) (299.05 K): 0.000128; solubility (mole fraction) (307.35 K): 0.000154; solubility (mole fraction) (311.35 K): 0.000169; solubility (mole fraction) (318.15 K): 0.000197; solubility (mole fraction) (324.75 K): 0.000216; solubility (mole fraction) (328.15 K): 0.000239; solubility (mole fraction) (331.15 K): 0.000257; solubility (mole fraction) (338.85 K): 0.000304; solubility (mole fraction) (343.35 K): 0.000345; solubility (mole fraction) (348.45 K): 0.000383; solubility (mole fraction) (353.75 K): 0.000445; solubility (mole fraction) (358.55 K): 0.000505; solubility (mole fraction) (364.55 K): 0.000574

Question: Which solubility (mole fraction) (278.75 K) does the source give for `CCCCn1cc[n+](C)c1.F[P-](F)(F)(F)(F)F` here?
Answer: 0.0009

Question: What about the solubility (mole fraction) (283.55 K) of the same compound?
Answer: 0.00102

Question: And the solubility (mole fraction) (289.55 K)?
Answer: 0.00108

Question: And the solubility (mole fraction) (295.95 K)?
Answer: 0.00126

Question: What about the solubility (mole fraction) (302.25 K) of the same compound?
Answer: 0.00146

Question: And the solubility (mole fraction) (310.35 K)?
Answer: 0.00171

Question: And the solubility (mole fraction) (314.95 K)?
Answer: 0.00195

Question: What about the solubility (mole fraction) (319.65 K) of the same compound?
Answer: 0.00218

Question: And the solubility (mole fraction) (326.65 K)?
Answer: 0.00244

Question: And the solubility (mole fraction) (333.25 K)?
Answer: 0.0029

Question: What about the solubility (mole fraction) (338.35 K) of the same compound?
Answer: 0.00339

Question: And the solubility (mole fraction) (344.35 K)?
Answer: 0.00371

Question: What about the solubility (mole fraction) (350.85 K) of the same compound?
Answer: 0.00444

Question: And the solubility (mole fraction) (357.35 K)?
Answer: 0.00532

Question: What about the solubility (mole fraction) (362.15 K) of the same compound?
Answer: 0.00628

Question: With `CCCCCCn1cc[n+](C)c1.F[P-](F)(F)(F)(F)F` as the compound, how does the solubility (mole fraction) (286.45 K) read?
Answer: 0.000326

Question: What about the solubility (mole fraction) (296.65 K) of the same compound?
Answer: 0.00041

Question: What about the solubility (mole fraction) (302.65 K) of the same compound?
Answer: 0.000448

Question: And the solubility (mole fraction) (307.85 K)?
Answer: 0.000503

Question: What about the solubility (mole fraction) (312.95 K) of the same compound?
Answer: 0.000545

Question: What about the solubility (mole fraction) (319.35 K) of the same compound?
Answer: 0.00066

Question: And the solubility (mole fraction) (326.35 K)?
Answer: 0.000734

Question: And the solubility (mole fraction) (331.75 K)?
Answer: 0.000852

Question: What about the solubility (mole fraction) (336.15 K) of the same compound?
Answer: 0.000919

Question: And the solubility (mole fraction) (340.25 K)?
Answer: 0.00105

Question: What about the solubility (mole fraction) (345.85 K) of the same compound?
Answer: 0.00113

Question: And the solubility (mole fraction) (350.75 K)?
Answer: 0.00128

Question: What about the solubility (mole fraction) (355.25 K) of the same compound?
Answer: 0.00144

Question: What about the solubility (mole fraction) (359.95 K) of the same compound?
Answer: 0.00157

Question: And the solubility (mole fraction) (363.05 K)?
Answer: 0.0018

— BigSolDB 2.1
